According to ChEMBL document CHEMBL4507295 (2021):

Assays:
[1] = biological target: Activin receptor type-1B (Homo sapiens) (UniProt P36896); details: Compound concentration 1000.0 nM
[2] = biological target: RAC-gamma serine/threonine-protein kinase (Homo sapiens) (UniProt Q9Y243); details: Compound concentration 1000.0 nM
[3] = biological target: Tyrosine-protein kinase receptor UFO (Homo sapiens) (UniProt P30530); details: Compound concentration 1000.0 nM
[4] = biological target: Bone morphogenetic protein receptor type-1A (Homo sapiens) (UniProt P36894); details: Compound concentration 1000.0 nM
[5] = biological target: Bone morphogenetic protein receptor type-2 (Homo sapiens) (UniProt Q13873); details: Compound concentration 1000.0 nM
[6] = biological target: Cyclin-dependent kinase 13 (Homo sapiens) (UniProt Q14004); details: Compound concentration 1000.0 nM
[7] = biological target: Casein kinase I isoform gamma-2 (Homo sapiens) (UniProt P78368); details: Compound concentration 1000.0 nM
[8] = biological target: Tyrosine-protein kinase Fer (Homo sapiens) (UniProt P16591); details: Compound concentration 1000.0 nM
[9] = test system: Receptor-type tyrosine-protein kinase FLT3 (Homo sapiens), P36888 [R834Q]; details: Compound concentration 1000.0 nM
[10] = biological target: Insulin receptor-related protein (Homo sapiens) (UniProt P14616); details: Compound concentration 1000.0 nM
[11] = biological target: LIM domain kinase 2 (Homo sapiens) (UniProt P53671); details: Compound concentration 1000.0 nM
[12] = biological target: Serine/threonine-protein kinase STK11 (Homo sapiens) (UniProt Q15831); details: Compound concentration 1000.0 nM
[13] = biological target: Tyrosine-protein kinase Lyn (Homo sapiens) (UniProt P07948); details: Compound concentration 1000.0 nM
[14] = biological target: Mitogen-activated protein kinase kinase kinase 11 (Homo sapiens) (UniProt Q16584); details: Compound concentration 1000.0 nM
Chain of Mitogen-activated protein kinase kinase kinase 11 (Homo sapiens) (Q16584 whole entry, looked up): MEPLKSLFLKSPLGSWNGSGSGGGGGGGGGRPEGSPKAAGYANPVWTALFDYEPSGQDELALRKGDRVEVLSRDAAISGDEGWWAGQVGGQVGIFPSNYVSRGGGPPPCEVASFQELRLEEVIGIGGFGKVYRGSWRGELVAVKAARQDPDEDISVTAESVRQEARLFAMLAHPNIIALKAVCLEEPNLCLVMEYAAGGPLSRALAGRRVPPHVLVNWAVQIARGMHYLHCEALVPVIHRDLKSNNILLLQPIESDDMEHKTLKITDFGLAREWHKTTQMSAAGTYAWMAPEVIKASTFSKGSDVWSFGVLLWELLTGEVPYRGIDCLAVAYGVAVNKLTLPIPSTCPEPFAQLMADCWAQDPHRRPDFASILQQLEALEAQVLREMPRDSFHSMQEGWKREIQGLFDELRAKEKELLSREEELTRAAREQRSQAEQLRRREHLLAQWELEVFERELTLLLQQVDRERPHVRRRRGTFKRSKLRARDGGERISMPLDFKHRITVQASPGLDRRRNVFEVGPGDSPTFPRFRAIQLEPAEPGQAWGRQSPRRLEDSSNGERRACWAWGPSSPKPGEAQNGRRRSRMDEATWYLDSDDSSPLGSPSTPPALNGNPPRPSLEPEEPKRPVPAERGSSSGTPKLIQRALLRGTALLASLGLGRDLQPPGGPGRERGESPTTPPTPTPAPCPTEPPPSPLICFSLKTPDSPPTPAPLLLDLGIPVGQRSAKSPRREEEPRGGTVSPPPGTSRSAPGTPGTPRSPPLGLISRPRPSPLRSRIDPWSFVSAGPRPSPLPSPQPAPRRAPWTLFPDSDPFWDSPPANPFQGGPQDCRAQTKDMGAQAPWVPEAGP

[15] = biological target: Myosin light chain kinase, smooth muscle (Homo sapiens) (UniProt Q15746); details: Compound concentration 1000.0 nM
Chain of Myosin light chain kinase, smooth muscle (Homo sapiens) (Q15746 whole entry): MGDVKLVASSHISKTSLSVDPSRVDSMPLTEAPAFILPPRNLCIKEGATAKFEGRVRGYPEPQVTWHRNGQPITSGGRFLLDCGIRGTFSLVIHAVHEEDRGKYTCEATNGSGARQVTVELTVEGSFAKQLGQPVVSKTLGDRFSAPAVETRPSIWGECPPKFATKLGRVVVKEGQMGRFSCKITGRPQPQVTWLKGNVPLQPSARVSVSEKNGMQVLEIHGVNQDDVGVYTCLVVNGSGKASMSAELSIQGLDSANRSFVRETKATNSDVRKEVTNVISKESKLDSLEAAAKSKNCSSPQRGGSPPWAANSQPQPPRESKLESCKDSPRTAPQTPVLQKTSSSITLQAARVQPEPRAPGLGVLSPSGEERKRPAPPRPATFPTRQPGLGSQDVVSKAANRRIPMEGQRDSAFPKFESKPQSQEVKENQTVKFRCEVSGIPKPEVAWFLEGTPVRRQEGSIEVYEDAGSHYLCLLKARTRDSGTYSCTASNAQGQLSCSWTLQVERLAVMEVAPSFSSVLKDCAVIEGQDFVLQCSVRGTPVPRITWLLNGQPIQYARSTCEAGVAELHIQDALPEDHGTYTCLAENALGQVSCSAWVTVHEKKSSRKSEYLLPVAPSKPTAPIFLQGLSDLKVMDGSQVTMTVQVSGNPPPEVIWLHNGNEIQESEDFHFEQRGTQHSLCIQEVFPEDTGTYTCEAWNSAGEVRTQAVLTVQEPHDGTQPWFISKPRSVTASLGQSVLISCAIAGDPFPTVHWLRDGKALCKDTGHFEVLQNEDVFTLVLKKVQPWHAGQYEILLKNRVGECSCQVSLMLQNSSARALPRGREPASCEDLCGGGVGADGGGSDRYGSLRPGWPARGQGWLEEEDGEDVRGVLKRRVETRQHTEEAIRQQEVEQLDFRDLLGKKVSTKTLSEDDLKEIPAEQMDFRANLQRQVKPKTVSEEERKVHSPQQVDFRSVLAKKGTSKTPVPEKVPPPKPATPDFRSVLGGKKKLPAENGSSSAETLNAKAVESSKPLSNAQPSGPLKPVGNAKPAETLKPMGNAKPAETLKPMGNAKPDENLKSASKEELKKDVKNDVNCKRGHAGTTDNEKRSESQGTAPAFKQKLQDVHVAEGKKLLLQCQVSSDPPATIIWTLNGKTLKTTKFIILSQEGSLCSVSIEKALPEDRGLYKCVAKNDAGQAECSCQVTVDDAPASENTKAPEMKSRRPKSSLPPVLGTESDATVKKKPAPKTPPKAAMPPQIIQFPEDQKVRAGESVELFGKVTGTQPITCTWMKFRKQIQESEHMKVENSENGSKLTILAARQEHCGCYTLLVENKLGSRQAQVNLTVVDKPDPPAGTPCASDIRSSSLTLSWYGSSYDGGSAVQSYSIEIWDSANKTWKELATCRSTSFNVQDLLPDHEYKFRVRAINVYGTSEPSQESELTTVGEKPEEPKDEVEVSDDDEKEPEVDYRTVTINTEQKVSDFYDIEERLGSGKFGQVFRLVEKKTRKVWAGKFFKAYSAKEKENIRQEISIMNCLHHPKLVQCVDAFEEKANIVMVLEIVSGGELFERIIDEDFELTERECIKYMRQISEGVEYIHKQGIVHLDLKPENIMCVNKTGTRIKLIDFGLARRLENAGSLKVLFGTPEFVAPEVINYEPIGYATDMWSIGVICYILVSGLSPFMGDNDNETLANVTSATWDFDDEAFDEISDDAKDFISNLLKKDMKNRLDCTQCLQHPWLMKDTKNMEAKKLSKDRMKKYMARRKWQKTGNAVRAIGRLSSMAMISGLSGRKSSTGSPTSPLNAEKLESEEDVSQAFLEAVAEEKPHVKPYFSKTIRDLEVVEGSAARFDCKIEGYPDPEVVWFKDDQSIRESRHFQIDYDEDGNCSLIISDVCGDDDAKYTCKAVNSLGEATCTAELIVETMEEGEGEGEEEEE

[16] = biological target: Myosin light chain kinase family member 4 (Homo sapiens) (UniProt Q86YV6); details: Compound concentration 1000.0 nM
[17] = biological target: Serine/threonine-protein kinase Nek2 (Homo sapiens) (UniProt P51955); details: Compound concentration 1000.0 nM
[18] = biological target: Serine/threonine-protein kinase OSR1 (Homo sapiens) (UniProt O95747); details: Compound concentration 1000.0 nM
[19] = biological target: Mitogen-activated protein kinase 11 (Homo sapiens) (UniProt Q15759); details: Compound concentration 1000.0 nM
[20] = biological target: Serine/threonine-protein kinase PAK 3 (Homo sapiens) (UniProt O75914); details: Compound concentration 1000.0 nM
[21] = biological target: Platelet-derived growth factor receptor beta (Homo sapiens) (UniProt P09619); details: Compound concentration 1000.0 nM
[22] = biological target: Phosphorylase b kinase regulatory subunit alpha, liver isoform (Homo sapiens) (UniProt P46019); details: Compound concentration 1000.0 nM
Chain of Phosphorylase b kinase regulatory subunit alpha, liver isoform (Homo sapiens) (P46019 whole entry, canonical isoform): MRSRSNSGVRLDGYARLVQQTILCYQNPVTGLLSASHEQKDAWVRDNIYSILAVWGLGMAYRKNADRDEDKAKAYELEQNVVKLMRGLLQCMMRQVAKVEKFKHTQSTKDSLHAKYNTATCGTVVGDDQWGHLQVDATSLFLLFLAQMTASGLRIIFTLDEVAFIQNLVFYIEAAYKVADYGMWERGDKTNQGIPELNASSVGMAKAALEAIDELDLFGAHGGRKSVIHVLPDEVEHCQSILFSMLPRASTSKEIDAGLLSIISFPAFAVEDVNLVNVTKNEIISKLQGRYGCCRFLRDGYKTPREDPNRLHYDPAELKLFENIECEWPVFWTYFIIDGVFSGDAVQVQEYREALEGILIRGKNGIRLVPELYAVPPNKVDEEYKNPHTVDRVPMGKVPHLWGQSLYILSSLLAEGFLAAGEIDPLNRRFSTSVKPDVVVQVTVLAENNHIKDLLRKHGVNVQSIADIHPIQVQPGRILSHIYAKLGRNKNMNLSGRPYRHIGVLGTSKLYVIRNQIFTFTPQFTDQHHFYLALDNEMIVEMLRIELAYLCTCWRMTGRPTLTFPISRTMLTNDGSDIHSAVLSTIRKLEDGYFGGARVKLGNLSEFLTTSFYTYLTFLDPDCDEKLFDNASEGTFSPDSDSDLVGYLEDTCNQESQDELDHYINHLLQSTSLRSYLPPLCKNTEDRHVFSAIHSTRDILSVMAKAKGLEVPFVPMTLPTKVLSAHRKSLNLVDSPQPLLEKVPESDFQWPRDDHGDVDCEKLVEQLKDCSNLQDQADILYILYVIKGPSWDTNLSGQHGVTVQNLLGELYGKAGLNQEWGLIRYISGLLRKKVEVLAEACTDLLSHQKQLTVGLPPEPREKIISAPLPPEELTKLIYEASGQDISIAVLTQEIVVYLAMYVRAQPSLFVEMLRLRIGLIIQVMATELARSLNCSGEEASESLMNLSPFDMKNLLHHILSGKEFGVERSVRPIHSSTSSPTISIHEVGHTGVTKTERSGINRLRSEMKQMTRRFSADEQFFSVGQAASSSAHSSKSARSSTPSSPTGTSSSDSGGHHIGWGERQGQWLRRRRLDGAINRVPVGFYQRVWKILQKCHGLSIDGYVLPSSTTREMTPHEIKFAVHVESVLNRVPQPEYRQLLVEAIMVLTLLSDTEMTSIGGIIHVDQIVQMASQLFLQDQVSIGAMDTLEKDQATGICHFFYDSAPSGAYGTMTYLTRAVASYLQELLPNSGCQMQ

[23] = test system: Phosphatidylinositol 4,5-bisphosphate 3-kinase catalytic subunit alpha isoform (Homo sapiens), P42336 [E545A]; details: Compound concentration 1000.0 nM
[24] = biological target: Serine/threonine-protein kinase D2 (Homo sapiens) (UniProt Q9BZL6); details: Compound concentration 1000.0 nM
[25] = biological target: Serine/threonine-protein kinase RIO2 (Homo sapiens) (UniProt Q9BVS4); details: Compound concentration 1000.0 nM
[26] = biological target: Proto-oncogene tyrosine-protein kinase Src (Homo sapiens) (UniProt P12931); details: Compound concentration 1000.0 nM
[27] = biological target: SRSF protein kinase 3 (Homo sapiens) (UniProt Q9UPE1); details: Compound concentration 1000.0 nM
[28] = biological target: Non-receptor tyrosine-protein kinase TYK2 (Homo sapiens) (UniProt P29597); details: Compound concentration 1000.0 nM
[29] = biological target: Serine/threonine-protein kinase ULK2 (Homo sapiens) (UniProt Q8IYT8); details: Compound concentration 1000.0 nM
Chain of Serine/threonine-protein kinase ULK2 (Homo sapiens) (Q8IYT8 whole entry): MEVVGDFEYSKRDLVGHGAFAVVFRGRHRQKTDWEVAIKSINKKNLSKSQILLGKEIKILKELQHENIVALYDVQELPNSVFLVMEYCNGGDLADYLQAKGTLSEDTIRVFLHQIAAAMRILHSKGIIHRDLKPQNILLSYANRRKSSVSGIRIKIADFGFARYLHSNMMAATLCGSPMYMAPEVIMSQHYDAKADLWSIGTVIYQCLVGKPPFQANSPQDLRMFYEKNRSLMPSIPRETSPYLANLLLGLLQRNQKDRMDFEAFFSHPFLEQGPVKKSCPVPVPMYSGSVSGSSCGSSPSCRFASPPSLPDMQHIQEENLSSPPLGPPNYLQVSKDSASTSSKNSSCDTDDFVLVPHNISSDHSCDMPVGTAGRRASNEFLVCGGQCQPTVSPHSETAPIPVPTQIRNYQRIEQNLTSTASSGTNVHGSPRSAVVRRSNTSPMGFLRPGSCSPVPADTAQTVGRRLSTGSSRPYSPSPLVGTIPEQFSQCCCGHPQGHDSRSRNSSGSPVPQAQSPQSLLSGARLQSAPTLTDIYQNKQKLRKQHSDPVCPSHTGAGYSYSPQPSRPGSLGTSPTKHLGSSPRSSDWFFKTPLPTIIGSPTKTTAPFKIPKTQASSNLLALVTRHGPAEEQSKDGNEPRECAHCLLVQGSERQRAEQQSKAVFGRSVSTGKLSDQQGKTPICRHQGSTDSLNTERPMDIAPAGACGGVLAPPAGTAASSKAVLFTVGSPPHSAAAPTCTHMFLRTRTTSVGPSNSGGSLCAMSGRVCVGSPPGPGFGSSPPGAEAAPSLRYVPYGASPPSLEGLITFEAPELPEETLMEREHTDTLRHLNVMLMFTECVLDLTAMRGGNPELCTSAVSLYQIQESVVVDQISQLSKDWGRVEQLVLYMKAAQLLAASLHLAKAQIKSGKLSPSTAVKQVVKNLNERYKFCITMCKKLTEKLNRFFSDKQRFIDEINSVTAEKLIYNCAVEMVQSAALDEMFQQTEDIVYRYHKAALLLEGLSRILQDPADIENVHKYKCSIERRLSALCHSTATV

[30] = biological target: Serine/threonine-protein kinase WNK1 (Homo sapiens) (UniProt Q9H4A3); details: Compound concentration 1000.0 nM
[31] = biological target: T1, 5-hydroxytryptamine receptor 2C (Homo sapiens) (UniProt P28335); details: Compound concentration 10.0 uM
T1 sequence (whole entry): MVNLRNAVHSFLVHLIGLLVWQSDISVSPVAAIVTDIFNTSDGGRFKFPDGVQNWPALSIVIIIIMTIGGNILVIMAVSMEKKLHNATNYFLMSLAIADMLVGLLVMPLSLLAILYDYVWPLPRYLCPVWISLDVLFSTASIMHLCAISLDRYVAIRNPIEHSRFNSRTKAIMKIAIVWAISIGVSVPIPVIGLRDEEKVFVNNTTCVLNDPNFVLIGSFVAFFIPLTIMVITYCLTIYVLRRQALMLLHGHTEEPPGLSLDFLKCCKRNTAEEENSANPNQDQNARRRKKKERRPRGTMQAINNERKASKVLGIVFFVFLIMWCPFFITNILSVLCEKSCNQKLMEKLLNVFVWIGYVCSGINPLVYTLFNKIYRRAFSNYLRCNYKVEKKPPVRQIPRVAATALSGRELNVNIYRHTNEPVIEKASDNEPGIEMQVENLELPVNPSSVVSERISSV

[32] = biological target: T2, Muscarinic acetylcholine receptor M5 (Homo sapiens) (UniProt P08912); details: Compound concentration 10.0 uM
T2 sequence (whole entry): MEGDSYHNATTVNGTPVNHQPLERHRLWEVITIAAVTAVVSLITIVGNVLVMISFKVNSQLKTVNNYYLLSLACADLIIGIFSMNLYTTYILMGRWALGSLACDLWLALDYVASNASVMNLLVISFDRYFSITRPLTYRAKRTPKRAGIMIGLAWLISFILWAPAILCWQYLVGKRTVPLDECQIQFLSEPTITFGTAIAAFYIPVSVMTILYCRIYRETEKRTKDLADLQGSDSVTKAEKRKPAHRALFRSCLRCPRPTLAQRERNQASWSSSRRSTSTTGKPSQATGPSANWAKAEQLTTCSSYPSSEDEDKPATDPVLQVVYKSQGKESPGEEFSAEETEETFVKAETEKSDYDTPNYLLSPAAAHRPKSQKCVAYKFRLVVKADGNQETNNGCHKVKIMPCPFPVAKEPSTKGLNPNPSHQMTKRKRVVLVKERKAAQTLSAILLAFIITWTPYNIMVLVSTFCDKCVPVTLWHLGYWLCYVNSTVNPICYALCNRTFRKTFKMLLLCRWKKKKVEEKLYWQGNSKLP

N#CC1(c2ccccn2)CCN(Cc2cc(C(=O)O)c(=O)n3ccccc23)CC1 [MSD-M1PAM]
inactive: residual activity [1] 94% | residual activity [2] 100% | residual activity [3] 91% | residual activity [4] 97% | residual activity [5] 89% | residual activity [6] 98% | residual activity [7] 91% | residual activity [8] 100% | residual activity [9] 100% | residual activity [10] 97% | residual activity [11] 100% | residual activity [12] 100% | residual activity [13] 100% | residual activity [14] 100% | residual activity [15] 87% | residual activity [16] 100% | residual activity [17] 100% | residual activity [18] 79% | residual activity [19] 100% | residual activity [20] 100% | residual activity [21] 100% | residual activity [22] 100% | residual activity [23] 100% | residual activity [24] 99% | residual activity [25] 92% | residual activity [26] 100% | residual activity [27] 95% | residual activity [28] 99% | residual activity [29] 93% | residual activity [30] 97% | inhibition [31] 10.5% | inhibition [32] 4.74%

N#CC1(c2ccccn2)CCN(Cc2cc(C(=O)N3CCCC3)c(=O)n3ccccc23)CC1
inactive: residual activity [1] 69% | residual activity [2] 74% | residual activity [3] 78% | residual activity [4] 74% | residual activity [5] 92% | residual activity [6] 100% | residual activity [7] 76% | residual activity [8] 89% | residual activity [9] 100% | residual activity [10] 93% | residual activity [11] 82% | residual activity [12] 77% | residual activity [13] 99% | residual activity [14] 89% | residual activity [15] 100% | residual activity [16] 95% | residual activity [17] 95% | residual activity [18] 100% | residual activity [19] 76% | residual activity [20] 100% | residual activity [21] 86% | residual activity [22] 85% | residual activity [23] 78% | residual activity [24] 85% | residual activity [25] 95% | residual activity [26] 56% | residual activity [27] 82% | residual activity [28] 91% | residual activity [29] 92% | residual activity [30] 100% | inhibition [31] -2.49% | inhibition [32] 0.56%
